Test results from patent US20250145665A1, “MACROCYCLIC PEPTIDES USEFUL AS MODULATORS OF TNF ALPHA” (Bristol-Myers Squibb Company, priority 2023, published 2025).
Starred links: 1 amine or outer side, 2 acyl side, 3 side chain; linkers in the order of their positions; H or OH if unused. Positions of bridges follow the written chain, without caps; N, C: chain ends. Non-standard residues stand in square brackets, D forms with d. Residues, ends and D or L forms follow the SMILES beside them. Bip(4'-NHCO-C6H4-3-CH2COOH) = N[C@@H](Cc1ccc(-c2ccc(NC(=O)c3cccc(CC(=O)O)c3)cc2)cc1)C(=O)O; X10 = Cn1cc(C(=O)Nc2ccc(-c3ccc(C[C@H](N[*:1])C(=O)[*:2])cc3)cc2)c2ccccc21; X5 = Cn1nc(C(=O)Nc2ccc(-c3ccc(C[C@H](N[*:1])C(=O)[*:2])cc3)cc2)c2ccccc21; dArg(Nω-CH2C6H4-3-CH2Gua) = N=C(N)NCc1cccc(CNC(=N)NCCC[C@@H](N)C(=O)O)c1; Bip(4'-COOH) = N[C@@H](Cc1ccc(-c2ccc(C(=O)O)cc2)cc1)C(=O)O; Bip(4'-NHAc) = CC(=O)Nc1ccc(-c2ccc(C[C@H](N)C(=O)O)cc2)cc1; X4 = N=C(NCCCc1cccc(N)c1)NCCC[C@@H](N[*:1])C(=O)[*:2]; Ala(imidazol-2-yl) = N[C@@H](Cc1ncc[nH]1)C(=O)O; Ala(morpholin-4-yl) = N[C@@H](CN1CCOCC1)C(=O)O; Bip = N[C@@H](Cc1ccc(-c2ccccc2)cc1)C(=O)O; Phe(3-OMe) = COc1cccc(C[C@H](N)C(=O)O)c1; 2Pal = N[C@@H](Cc1ccccn1)C(=O)O; Cha = N[C@@H](CC1CCCCC1)C(=O)O; hLeu = CC(C)CC[C@H](N)C(=O)O; Aze = O=C(O)[C@@H]1CCN1; Dab = NCC[C@H](N)C(=O)O; Sar = CNCC(=O)O

Target: TNFα (Homo sapiens, UniProt P01375)
Sequence (P01375 77-233 limits assumed): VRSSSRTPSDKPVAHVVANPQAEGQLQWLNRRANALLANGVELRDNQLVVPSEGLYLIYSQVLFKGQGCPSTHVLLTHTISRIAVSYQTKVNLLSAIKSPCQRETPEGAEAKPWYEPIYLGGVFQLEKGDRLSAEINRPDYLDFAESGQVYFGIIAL
Experiment: TNF-Induced HEK-Blue Assay
Assay type: cell-based
Conditions: HEK-Blue-CD40L cells, NF-kB-driven secreted alkaline phosphatase reporter; TNFα 0.5 ng/ml; 18 h; read-out: TNF induced HEK-Blue assay IC50 value

Row | IC50 [nM] | SMILES
1 | < 50 | CC(C)C[C@@H]1NC(=O)[C@H](Cc2ncc[nH]2)NC(=O)[C@H](C(C)C)NC(=O)[C@@H]2CCCN2C(=O)[C@H](C(C)C)NC(=O)[C@@H](CCCNC(=N)NCc2cccc(CNC(=N)N)c2)NC(=O)[C@H](CC(=O)O)NC(=O)[C@H](Cc2ccccn2)NC(=O)CN(C)C(=O)[C@H](Cc2ccc(-c3ccc(NC(=O)c4cccc(CC(=O)O)c4)cc3)cc2)NC(=O)[C@H](Cc2ccc(-c3ccc(C(=O)O)cc3)cc2)NC(=O)[C@H](CC2CCCCC2)NC(=O)CSC[C@@H](C(=O)NCC(N)=O)NC1=O [Example 558] ({CH2CO}-[Cha][Bip(4'-COOH)][Bip(4'-NHCO-C6H4-3-CH2COOH)][Sar][2Pal]D[dArg(Nω-CH2C6H4-3-CH2Gua)]VPV[Ala(imidazol-2-yl)]LCG-NH2; thioether N-13)
2 | 50 to 200 | CC[C@H](C)[C@@H]1NC(=O)[C@@H]2CCCN2C(=O)[C@H]([C@@H](C)CC)NC(=O)[C@@H](CCCNC(=N)N)NC(=O)[C@H](CC(=O)O)NC(=O)[C@@H]2CCCN2C(=O)CN(C)C(=O)[C@H](Cc2ccc(-c3ccc(NC(C)=O)cc3)cc2)NC(=O)[C@H](Cc2ccc(-c3ccc(C(=O)O)cc3)cc2)NC(=O)[C@H](CC2CCCCC2)NC(=O)CSC[C@@H](C(=O)NCC(N)=O)NC(=O)[C@H](CC(C)C)NC(=O)[C@H](Cc2ccc(O)cc2)NC1=O [Example 286] ({CH2CO}-[Cha][Bip(4'-COOH)][Bip(4'-NHAc)][Sar]PD[dR]IPIYLCG-NH2; thioether N-13)
3 | 50 to 200 | CC(=O)Nc1ccc(-c2ccc(C[C@@H]3NC(=O)[C@H](Cc4ccc(-c5ccc(C(=O)O)cc5)cc4)NC(=O)[C@H](CC4CCCCC4)NC(=O)CSC[C@@H](C(=O)NCC(N)=O)NC(=O)[C@H](CC(C)C)NC(=O)[C@H](Cc4ccc(O)cc4)NC(=O)[C@H](C(C)C)NC(=O)[C@@H]4CCCN4C(=O)[C@H](CC(N)=O)NC(=O)[C@@H](CCCNC(=N)N)NC(=O)[C@H](CC(=O)O)NC(=O)[C@@H]4CCCN4C(=O)CN(C)C3=O)cc2)cc1 [Example 247] ({CH2CO}-[Cha][Bip(4'-COOH)][Bip(4'-NHAc)][Sar]PD[dR]NPVYLCG-NH2; thioether N-13)
4 | 50 to 200 | CC(=O)Nc1ccc(-c2ccc(C[C@@H]3NC(=O)[C@H](Cc4ccc(-c5ccc(C(=O)O)cc5)cc4)NC(=O)[C@H](CC4CCCCC4)NC(=O)CSC[C@@H](C(=O)N[C@@H](CCN)C(N)=O)NC(=O)[C@H](CC(C)C)NC(=O)[C@H](Cc4ccc(O)cc4)NC(=O)[C@H](C(C)C)NC(=O)[C@@H]4CCCN4C(=O)[C@H](C(C)C)NC(=O)[C@@H](CCCNC(=N)N)NC(=O)[C@H](CC(=O)O)NC(=O)[C@@H]4CCCN4C(=O)CN(C)C3=O)cc2)cc1 [Example 243] ({CH2CO}-[Cha][Bip(4'-COOH)][Bip(4'-NHAc)][Sar]PD[dR]VPVYLC[Dab]-NH2; thioether N-13)
5 | 50 to 200 | CC[C@H](C)[C@@H]1NC(=O)[C@@H](CCCNC(=N)N)NC(=O)[C@H](CC(=O)O)NC(=O)[C@H](Cc2cnc[nH]2)NC(=O)CN(C)C(=O)[C@H](Cc2ccc(-c3ccc(NC(C)=O)cc3)cc2)NC(=O)[C@H](Cc2ccc(-c3ccc(C(=O)O)cc3)cc2)NC(=O)[C@H](CC2CCCCC2)NC(=O)CSC[C@@H](C(=O)NCC(N)=O)NC(=O)[C@H](CC(C)C)NC(=O)[C@H](Cc2cccc(OC)c2)NC(=O)[C@H](C(C)C)NC(=O)[C@@H]2CCCN2C1=O [Example 282] ({CH2CO}-[Cha][Bip(4'-COOH)][Bip(4'-NHAc)][Sar]HD[dR]IPV[Phe(3-OMe)]LCG-NH2; thioether N-13)
6 | < 50 | CC(C)C[C@@H]1NC(=O)[C@H](Cc2ccc(O)cc2)NC(=O)[C@H](C(C)C)NC(=O)[C@@H]2CCN2C(=O)[C@H](C(C)C)NC(=O)[C@@H](CCCNC(=N)N)NC(=O)[C@H](CC(=O)O)NC(=O)[C@H](Cc2ccc(O)cc2)NC(=O)CN(C)C(=O)[C@H](Cc2ccc(-c3ccccc3)cc2)NC(=O)[C@H](Cc2ccc(-c3ccc(C(=O)O)cc3)cc2)NC(=O)[C@H](CN2CCOCC2)NC(=O)CSC[C@@H](C(=O)NCC(N)=O)NC1=O [Example 147] ({CH2CO}-[Ala(morpholin-4-yl)][Bip(4'-COOH)][Bip][Sar]YD[dR]V[Aze]VYLCG-NH2; thioether N-13)
7 | 50 to 200 | CC(=O)Nc1ccc(-c2ccc(C[C@@H]3NC(=O)[C@H](Cc4ccc(-c5ccccc5)cc4)NC(=O)[C@H](CC4CCCCC4)NC(=O)CSC[C@@H](C(=O)N[C@@H](CCC(=O)O)C(N)=O)NC(=O)[C@H](CC(C)C)NC(=O)[C@H](Cc4cnc[nH]4)NC(=O)[C@H](C(C)C)NC(=O)[C@@H]4CCCN4C(=O)[C@H](C(C)C)NC(=O)[C@@H](CCCNC(=N)N)NC(=O)[C@H](CC(=O)O)NC(=O)[C@H](Cc4ccc(O)cc4)NC(=O)CN(C)C3=O)cc2)cc1 [Example 249] ({CH2CO}-[Cha][Bip][Bip(4'-NHAc)][Sar]YD[dR]VPVHLCE-NH2; thioether N-13)

The next lines start with the compound.

Row | SMILES | IC50 [nM]
8 | CC(C)C[C@@H]1NC(=O)[C@H](CCCNC(=N)N)NC(=O)[C@H](C(C)C)NC(=O)[C@@H]2CCCN2C(=O)[C@H](C(C)C)NC(=O)[C@@H](CCCNC(=N)N)NC(=O)[C@H](CC(=O)O)NC(=O)[C@@H]2CCCN2C(=O)CN(C)C(=O)[C@H](Cc2ccc(-c3ccc(NC(=O)c4cn(C)c5ccccc45)cc3)cc2)NC(=O)[C@H](Cc2ccc(-c3ccccc3)cc2)NC(=O)[C@H](CN2CCOCC2)NC(=O)CSC[C@@H](C(=O)NCC(N)=O)NC1=O [Example 348] ({CH2CO}-[Ala(morpholin-4-yl)][Bip][X10][Sar]PD[dR]VPVRLCG-NH2; thioether N-13) | 50 to 200
9 | CC(C)CC[C@@H]1NC(=O)CSC[C@@H](C(=O)NCC(N)=O)NC(=O)[C@H](CC(C)C)NC(=O)[C@H](CCCNC(=N)N)NC(=O)[C@H](C(C)C)NC(=O)[C@@H]2CCCN2C(=O)[C@H](C(C)C)NC(=O)[C@H](CCCNC(=N)N)NC(=O)[C@H](CC(=O)O)NC(=O)[C@@H]2CCCN2C(=O)CN(C)C(=O)[C@H](Cc2ccc(-c3ccccc3)cc2)NC(=O)[C@H](Cc2ccc(-c3ccccc3)cc2)NC1=O [Example 28] ({CH2CO}-[hLeu][Bip][Bip][Sar]PDRVPVRLCG-NH2; thioether N-13) | 200 to 2000
10 | CC(C)C[C@@H]1NC(=O)[C@H](CCCNC(=N)N)NC(=O)[C@H](C(C)C)NC(=O)[C@@H]2CCCN2C(=O)[C@H](C(C)C)NC(=O)[C@@H](CCCNC(=N)NCCCc2cccc(N)c2)NC(=O)[C@H](CC(=O)O)NC(=O)[C@@H]2CCCN2C(=O)CN(C)C(=O)[C@H](Cc2ccc(-c3ccc(NC(=O)c4nn(C)c5ccccc45)cc3)cc2)NC(=O)[C@H](Cc2ccc(-c3ccccc3)cc2)NC(=O)[C@H](CN2CCOCC2)NC(=O)CSC[C@@H](C(=O)NCC(N)=O)NC1=O [Example 394] ({CH2CO}-[Ala(morpholin-4-yl)][Bip][X5][Sar]PD[X4]VPVRLCG-NH2; thioether N-13) | 50 to 200
11 | CC(C)C[C@@H]1NC(=O)[C@H](CCCCN)NC(=O)[C@H](C(C)C)NC(=O)[C@@H]2CCCN2C(=O)[C@H](C(C)C)NC(=O)[C@H](CCCNC(=N)N)NC(=O)[C@H](CC(=O)O)NC(=O)[C@@H]2CCCN2C(=O)CN(C)C(=O)[C@H](Cc2ccc(-c3ccccc3)cc2)NC(=O)[C@H](Cc2ccc(-c3ccccc3)cc2)NC(=O)[C@H](Cc2ccccc2)NC(=O)CSC[C@@H](C(=O)NCC(N)=O)NC1=O [Example 3] ({CH2CO}-F[Bip][Bip][Sar]PDRVPVKLCG-NH2; thioether N-13) | 200 to 2000
